Test system: Radical scavenging activity
Experiment: Antioxidant activity assessed as DPPH free radical scavenging activity
Type: functional

SMILES | IC50
COc1cc([C@H]2Oc3c(OC)cc4ccc(=O)oc4c3O[C@@H]2COC(=O)/C=C/c2ccc(O)c(O)c2)ccc1O [REPENIN C] | 450 µM
COc1cc(/C=C/C(=O)OC[C@H]2Oc3c(c(OC)cc4ccc(=O)oc34)O[C@@H]2c2ccc(O)c(OC)c2)ccc1O [REPENIN B] | 420 µM
COc1ccc(O)c(C(C)(C)C)c1.COc1ccc(O)cc1C(C)(C)C [BUTYLATED HYDROXYANISOLE] | 43 µM
COc1cc([C@H]2Oc3c(OC)cc4ccc(=O)oc4c3O[C@@H]2CO)ccc1O [CLEOMISCOSIN A] | 612 µM
COc1cc([C@H]2Oc3c(OC)cc4ccc(=O)oc4c3O[C@@H]2COC(=O)c2ccc(O)c(O)c2)cc(OC)c1O [REPENIN D] | 510 µM
COc1cc([C@H]2Oc3c(OC)cc4ccc(=O)oc4c3O[C@@H]2COC(C)=O)ccc1O [DURANTIN A] | 625 µM
COc1cc([C@H]2Oc3c(OC)cc4ccc(=O)oc4c3O[C@@H]2COC(=O)/C=C/c2ccc(O)cc2)ccc1O [REPENIN A] | 530 µM
